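Method: 48-hour compound exposure of cells in 96-well plates, five concentrations, linear interpolation of endpoints. The concentration for full growth arrest is given as TGI.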
Columns and labels:
Experiment in all cases: DTP human tumour cell line panel, 48 h
MCF7 breast = test system: MCF7 breast
MDA-N = test system: MDA-N
RPMI-8226 leukemia = test system: RPMI-8226 leukemia
IGROV1 ovarian = test system: IGROV1 ovarian
CAKI-1 renal = test system: CAKI-1 renal
K-562 leukemia = test system: K-562 leukemia
SR leukemia = test system: SR leukemia
MOLT-4 leukemia = test system: MOLT-4 leukemia
SF-295 CNS = test system: SF-295 CNS
A549 NSCLC = test system: A549 NSCLC
HCT-116 colon = test system: HCT-116 colon
SN12C renal = test system: SN12C renal
SW-620 colon = test system: SW-620 colon
UO-31 renal = test system: UO-31 renal
KM12 colon = test system: KM12 colon
NCI-H522 lung = test system: NCI-H522 lung
SK-OV-3 ovarian = test system: SK-OV-3 ovarian
SK-MEL-28 melanoma = test system: SK-MEL-28 melanoma
SF-539 CNS = test system: SF-539 CNS
HL-60(TB) leukemia = test system: HL-60(TB) leukemia
MALME-3M melanoma = test system: MALME-3M melanoma
T-47D breast = test system: T-47D breast
NCI-H460 lung = test system: NCI-H460 lung
EKVX NSCLC = test system: EKVX NSCLC
HT29 colon = test system: HT29 colon
CCRF-CEM leukemia = test system: CCRF-CEM leukemia
LOX IMVI melanoma = test system: LOX IMVI melanoma
PC-3 prostate = test system: PC-3 prostate
UACC-62 melanoma = test system: UACC-62 melanoma
HOP-62 NSCLC = test system: HOP-62 NSCLC
SNB-19 CNS = test system: SNB-19 CNS
MDA-MB-435 = test system: MDA-MB-435
COLO 205 colon = test system: COLO 205 colon
DU-145 prostate = test system: DU-145 prostate
SF-268 CNS = test system: SF-268 CNS
NCI-H23 lung = test system: NCI-H23 lung
M14 melanoma = test system: M14 melanoma
HCT-15 colon = test system: HCT-15 colon
A498 renal = test system: A498 renal
ACHN renal = test system: ACHN renal
HCC-2998 colon = test system: HCC-2998 colon
UACC-257 melanoma = test system: UACC-257 melanoma
NCI-H226 lung = test system: NCI-H226 lung
BT-549 breast = test system: BT-549 breast
SNB-75 CNS = test system: SNB-75 CNS
OVCAR-8 ovarian = test system: OVCAR-8 ovarian
786-0 renal = test system: 786-0 renal
HS 578T breast = test system: HS 578T breast
MDA-MB-231 breast = test system: MDA-MB-231 breast
TK-10 renal = test system: TK-10 renal
SK-MEL-5 melanoma = test system: SK-MEL-5 melanoma
RXF 393 renal = test system: RXF 393 renal
HOP-92 NSCLC = test system: HOP-92 NSCLC
U251 CNS = test system: U251 CNS
OVCAR-3 ovarian = test system: OVCAR-3 ovarian
OVCAR-5 ovarian = test system: OVCAR-5 ovarian
SK-MEL-2 melanoma = test system: SK-MEL-2 melanoma
OVCAR-4 ovarian = test system: OVCAR-4 ovarian
NCI/ADR-RES ovarian = test system: NCI/ADR-RES ovarian

C=CCOCn1ccc(NC(=O)c2ccccc2)nc1=O
TGI (MCF7 breast): > 100 µM
TGI (MDA-N): > 100 µM
TGI (RPMI-8226 leukemia): > 100 µM
TGI (IGROV1 ovarian): > 100 µM
TGI (CAKI-1 renal): > 100 µM
TGI (K-562 leukemia): > 100 µM
TGI (SR leukemia): > 100 µM
TGI (MOLT-4 leukemia): > 100 µM
TGI (SF-295 CNS): > 100 µM
TGI (A549 NSCLC): > 100 µM
TGI (HCT-116 colon): > 100 µM
TGI (SN12C renal): > 100 µM
TGI (SW-620 colon): > 100 µM
TGI (UO-31 renal): > 100 µM
TGI (KM12 colon): > 100 µM
TGI (NCI-H522 lung): > 100 µM
TGI (SK-OV-3 ovarian): > 100 µM
TGI (SK-MEL-28 melanoma): > 100 µM
TGI (SF-539 CNS): > 100 µM
TGI (HL-60(TB) leukemia): > 100 µM
TGI (MALME-3M melanoma): > 100 µM
TGI (T-47D breast): > 100 µM
TGI (NCI-H460 lung): > 100 µM
TGI (EKVX NSCLC): > 100 µM
TGI (HT29 colon): > 100 µM
TGI (CCRF-CEM leukemia): > 100 µM
TGI (LOX IMVI melanoma): > 100 µM
TGI (PC-3 prostate): > 100 µM
TGI (UACC-62 melanoma): > 100 µM
TGI (HOP-62 NSCLC): > 100 µM
TGI (SNB-19 CNS): > 100 µM
TGI (MDA-MB-435): > 100 µM
TGI (COLO 205 colon): > 100 µM
TGI (DU-145 prostate): > 100 µM
TGI (SF-268 CNS): > 100 µM
TGI (NCI-H23 lung): > 100 µM
TGI (M14 melanoma): > 100 µM
TGI (HCT-15 colon): > 100 µM
TGI (A498 renal): > 100 µM
TGI (ACHN renal): > 100 µM
TGI (HCC-2998 colon): > 100 µM
TGI (UACC-257 melanoma): > 100 µM
TGI (NCI-H226 lung): > 100 µM
TGI (BT-549 breast): > 100 µM
TGI (SNB-75 CNS): > 100 µM
TGI (OVCAR-8 ovarian): > 100 µM
TGI (786-0 renal): > 100 µM
TGI (HS 578T breast): > 100 µM
TGI (MDA-MB-231 breast): > 100 µM
TGI (TK-10 renal): > 100 µM
TGI (SK-MEL-5 melanoma): > 100 µM

CCN(CC)CCNc1ccc2ncn3c4c(OC)ccc(=O)c4c(O)c1c23
TGI (MCF7 breast): > 70.7 µM
TGI (MDA-N): > 100 µM
TGI (RPMI-8226 leukemia): 17.8 µM
TGI (IGROV1 ovarian): > 43.8 µM
TGI (RXF 393 renal): 34.1 µM
TGI (CAKI-1 renal): > 100 µM
TGI (K-562 leukemia): > 100 µM
TGI (HOP-92 NSCLC): > 62.1 µM
TGI (SR leukemia): > 31.6 µM
TGI (MOLT-4 leukemia): > 24.6 µM
TGI (U251 CNS): > 100 µM
TGI (SF-295 CNS): > 100 µM
TGI (A549 NSCLC): > 100 µM
TGI (HCT-116 colon): > 44.3 µM
TGI (OVCAR-3 ovarian): > 100 µM
TGI (SN12C renal): > 100 µM
TGI (SW-620 colon): > 43.8 µM
TGI (UO-31 renal): > 100 µM
TGI (KM12 colon): > 100 µM
TGI (NCI-H522 lung): > 39.7 µM
TGI (SK-OV-3 ovarian): > 100 µM
TGI (OVCAR-5 ovarian): > 92.7 µM
TGI (SK-MEL-28 melanoma): 27.1 µM
TGI (SF-539 CNS): 31.3 µM
TGI (HL-60(TB) leukemia): > 100 µM
TGI (MALME-3M melanoma): 98.6 µM
TGI (SK-MEL-2 melanoma): > 100 µM
TGI (T-47D breast): > 100 µM
TGI (NCI-H460 lung): > 100 µM
TGI (EKVX NSCLC): > 100 µM
TGI (OVCAR-4 ovarian): > 100 µM
TGI (HT29 colon): > 57.8 µM
TGI (CCRF-CEM leukemia): > 100 µM
TGI (PC-3 prostate): > 100 µM
TGI (UACC-62 melanoma): > 100 µM
TGI (HOP-62 NSCLC): > 100 µM
TGI (SNB-19 CNS): > 100 µM
TGI (MDA-MB-435): > 100 µM
TGI (COLO 205 colon): > 100 µM
TGI (DU-145 prostate): > 100 µM
TGI (SF-268 CNS): > 95.2 µM
TGI (NCI/ADR-RES ovarian): > 50.9 µM
TGI (NCI-H23 lung): > 92.9 µM
TGI (M14 melanoma): > 100 µM
TGI (HCT-15 colon): > 100 µM
TGI (ACHN renal): > 100 µM
TGI (HCC-2998 colon): > 100 µM
TGI (UACC-257 melanoma): > 100 µM
TGI (NCI-H226 lung): > 100 µM
TGI (BT-549 breast): > 100 µM
TGI (SNB-75 CNS): > 100 µM
TGI (OVCAR-8 ovarian): > 100 µM
TGI (786-0 renal): > 100 µM
TGI (HS 578T breast): > 100 µM
TGI (MDA-MB-231 breast): > 100 µM
TGI (TK-10 renal): > 100 µM
TGI (SK-MEL-5 melanoma): > 39.6 µM

From PubChem BioAssay (NCI)
